Experimental data: publication PMC8510124, “Design, Synthesis, Biological Evaluation and In Silico Study of Benzyloxybenzaldehyde Derivatives as Selective ALDH1A3 Inhibitors” (Molecules, 2021)

Columns and labels:
ALDH1A3 [1] = molecular target: T1, ALDH1A3 (Homo sapiens, UniProt P47895); test: fluorimetric NADH dehydrogenase assay, […] hexanal, IC50 curve; assay type: biochemical; conditions: read-out: IC50 (μM) ± SE ALDH1A3
T1 construct: recombinant, N-terminal (His)6 tag
T1 sequence (P47895 2-512): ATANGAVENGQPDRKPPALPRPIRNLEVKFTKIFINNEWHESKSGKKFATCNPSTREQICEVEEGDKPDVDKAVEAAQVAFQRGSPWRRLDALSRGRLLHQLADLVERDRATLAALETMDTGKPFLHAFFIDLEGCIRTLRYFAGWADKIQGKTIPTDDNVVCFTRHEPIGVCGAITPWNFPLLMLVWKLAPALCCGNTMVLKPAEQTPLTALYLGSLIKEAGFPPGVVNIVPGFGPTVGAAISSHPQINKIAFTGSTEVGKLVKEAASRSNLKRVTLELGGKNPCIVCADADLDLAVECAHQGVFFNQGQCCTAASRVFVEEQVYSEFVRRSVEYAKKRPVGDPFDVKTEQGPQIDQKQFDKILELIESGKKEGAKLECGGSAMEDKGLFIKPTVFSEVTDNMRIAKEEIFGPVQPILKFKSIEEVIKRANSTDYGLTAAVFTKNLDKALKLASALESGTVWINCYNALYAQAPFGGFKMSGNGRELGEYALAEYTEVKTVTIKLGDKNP

ALDH1A3 [2] = molecular target: T1, ALDH1A3; test: fluorimetric NADH assay, single point […], […] hexanal (near Km); assay type: biochemical; conditions: read-out: Remaining Activity ± SE (%) at 10 μM Compound / ALDH1A3 / [S] near Km (10 μM Hex)

Row | Compound | IC50 (ALDH1A3 [1]) | remaining activity at 10 µM (ALDH1A3 [2])
1 | O=Cc1ccc(OCc2ccc(Cl)cc2)cc1 [ABMM-15, 4-((4-Chlorobenzyl)oxy)benzaldehyde] | 0.23 ± 0.05 µM | 
2 | COc1cc(C=O)ccc1OCc1ccc(Cl)cc1 [ABMM-16, 4-((4-Chlorobenzyl)oxy)-3-methoxybenzaldehyde] | 1.29 ± 0.1 µM | 
3 | COc1cc(C=O)cc(OC)c1OC(=O)c1ccc(F)cc1 [ABMM-18, 4-Formyl-2,6-dimethoxyphenyl 4-Fluorobenzoate] |  | 16 ± 3.4%
4 | COc1cc(C=O)ccc1OC(=O)c1ccc(Cl)cc1 [ABMM-1, 4-Formyl-2-methoxyphenyl 4-Chlorobenzoate] |  | 21.07 ± 0.1%
